The results in this text go back to patent publication US20240279204A1, “NOVEL DIPHENAZINE COMPOUND, AND USE THEREOF FOR PREVENTING OR TREATING CANCER OR NEUROINFLAMMATORY DISEASES” (KOREA INSTITUTE OF OCEAN SCIENCE & TECHNOLOGY, priority 2021, published 2024).

Read-outs that look alike come from different tables or passages of the source. Where only a bound is given, the exact number is not on record here.

For one series, the system named is ACHN (kidney). In words: SRB cytotoxicity assay, ACHN. It is filed as cell-based, human. As to conditions: 48 hours. The method, then: (§1) A cytotoxicity test was evaluated using sulforhodamine B (SRB) assay on six human cancer cell lines. Human cancer cell lines, ACHN (kidney), NCI-H23 (lung), PC-3 (prostate), NUGC-3 (stomach), MDA-MB-231 (breast), and HCT-15 (colon) were purchased from American Type Culture Collection (ATCC). Cells were cultured in a RPMI 1640 medium added with 10% fetal bovine serum (FBS) at 37° C. in a 5% CO2 incubator. The cells (8×10^3 cells/well) were dispensed into a 96-well plate, cultured for one day, and then treated with Compounds 1-8 dissolved in 0.1% DMSO, (R)-(6-(1-((2-aminobenzoyl)oxy)ethyl)phenazine-1-carboxylic acid as Compound 9, and adriamycin as a positive control group. The cells were cultured for 48 hours, fixed with 50% trichloroacetic acid ([…]) and stained with 0.4% surfohodamine B dissolved in 1% acetic acid. Non-stained cells were removed by washing with 1% acetic acid, and cells bound to a protein were extracted with 10 mM Tris base (pH 10.5) to measure the optical density. Absorbance was measured at 540 nm using a microplate reader, and GI50 values were calculated using GraphPad Prism 4.0.
For orientation: Sulforhodamine B stains cellular protein and so reports cell mass.

For the next series, the system named is NCI-H23 (lung). As to the kind of experiment: SRB cytotoxicity assay, NCI-H23. Format: cell-based, human. The method, then: as §1
The subject of a further series is PC-3 (prostate). In words: SRB cytotoxicity assay, PC-3. Format: cell-based, human. To be noted: 48 hours. The method, then: as §1
The subject of a further series is NUGC-3 (stomach). In words: SRB cytotoxicity assay, NUGC-3. Format: cell-based, human. To be noted: for GI50: SRB assay, 48 hours. The method, then: as §1
Another series relates to MDA-MB-231 (breast). As to the kind of experiment: SRB cytotoxicity assay, MDA-MB-231. It is filed as cell-based, human. The method, then:
as §1

Another series deals with HCT-15 (colon). As to the kind of experiment: SRB cytotoxicity assay, HCT-15. It is filed as cell-based, human. The method, then: as §1
The subject of series [1] is LPS-induced BV-2 microglia. As to the kind of experiment: NO generation inhibition in LPS-induced BV-2 microglia (Griess reagent). As to conditions: compound 1 hour then LPS 200 ng/mL for 24 hours, nitrite by Griess reagent, read-out: IC50 (μM), NO generation inhibitory activity by activated microglia. It is filed as cell-based. As to the method:
(§2) NO generation to confirm anti-brain neuroinflammatory activity was evaluated by measuring a nitrite concentration in the medium using a Griess reagent, and the cell viability was evaluated using MTT assay. Briefly, BV-2 microglia were cultured in a Dulbecco's modified Eagle's medium (DMEM) supplemented with 5% heat-inactivated FBS and 50 µg/mL of penicillin-streptomycin in a 5% CO2 incubator at 37° C. A 96-well plate dispensed with pre-cultured cells (2.5×10^4 cells/mL) was treated with compounds at various concentrations (10, 20, 50, and 100 μM) for 1 hour, and treated with LPS (200 ng/mL) and cultured for 24 hours. The supernatant was mixed with a Griess reagent and cultured at room temperature for 10 minutes. The nitrite concentration was determined using a sodium nitrite standard solution prepared in a cell culture medium. Absorbance was measured at a wavelength of 540 nm with a microplate reader. To evaluate the cell viability, the 96-well plate dispensed with cells (2.5×10^4 cells/mL) was treated with compounds at various concentrations (10, 20, 50, and 100 μM) for 1 hour, and treated with LPS (200 ng/mL) and cultured for 24 hours. An MTT solution (0.5 mg/mL) was added to each well and cultured at 37° C. for 4 hours. The supernatant was removed, and the formed formazan crystals were dissolved in DMSO. The absorbance was measured at 550 nm using a microplate reader. To determine the IC50 value of Compound 6, NO generation and MTT assay were performed in the same manner as described above, only with different concentrations (0.25, 0.5, and 1 μM) (Table 4). The experiment was repeated 3 times.

The test system of a further series is BV-2 microglia. In words: Cell viability of BV-2 microglia (MTT assay). It is filed as cell-based. As to conditions: LPS 200 ng/mL, 24 hours. As to the method:
as §2, with “To determine the IC50 value of Compound 6, NO generation and MTT assay were performed in the same manner as described above, only with different concentrations (0.25, 0.5, and 1 μM) (Table 4). The experiment was repeated 3 times.” left out
On the technique in general: Tetrazolium dyes change colour on reduction, which living cells bring about.

Where [2] appears, read: Homo sapiens, NCI-H23, 48 hours.
The mark [3] stands for this setting: Homo sapiens, NUGC-3, read-out: GI50, NUGC-3.
Where [4] appears, read: Homo sapiens, MDA-MB-231, 48 hours.

Regarding `COc1cccc2c1C(=O)c1c(O)c3c(c(O)c1C2=O)C[C@@](O)(C(=O)CO)C[C@@H]3O[C@H]1C[C@H](N)[C@H](O)[C@H](C)O1` [ADR, Adriamycin, reference compound], the GI50 in the series on ACHN (kidney) (Homo sapiens, ACHN) amounted to 0.17 µM; with NCI-H23 (lung) (setting [2]), 0.16 µM; in the series with PC-3 (prostate) (Homo sapiens), 0.16 µM; in the series on NUGC-3 (stomach) (setting [3]), 0.15 µM; in the series with MDA-MB-231 (breast) (setting [4]), 0.15 µM; in the series with HCT-15 (colon) (Homo sapiens, HCT-15, 48 hours), 0.17 µM.

With `C[C@H](c1cccc2nc3c(C(=O)O)cccc3nc12)c1ccc(C(=O)O)c2nc3cccc([C@@H](C)O)c3nc12` [Compound 1, 4-((R)-1-(6-carboxyphenazin-1-yl)ethyl)-6-((R)-1-hydroxyethyl)phenazine-1-carboxylic acid], in series [1] (Mus musculus), the IC50 was 166 µM. In addition, the concentration for 50% growth inhibition (GI50) in the series on ACHN (kidney) (Homo sapiens, ACHN) was above 10 µM; in the series on NCI-H23 (lung) (setting [2]), above 10 µM; in the series on PC-3 (prostate) (Homo sapiens), above 10 µM; in the series on NUGC-3 (stomach) (setting [3]), above 10 µM; with MDA-MB-231 (breast) (setting [4]), above 10 µM; with HCT-15 (colon) (Homo sapiens, HCT-15, 48 hours), above 10 µM.

With `C[C@@H](c1cccc2nc3c(C(=O)O)cccc3nc12)c1ccc(C(=O)O)c2nc3cccc([C@@H](C)O)c3nc12` [Compound 2, 4-((S)-1-(6-carboxyphenazin-1-yl)ethyl)-6-((R)-1-hydroxyethyl)phenazine-1-carboxylic acid], the IC50 in series [1] (Mus musculus) is 90.2 µM. The GI50 was above 10 µM in the series with ACHN (kidney) (Homo sapiens, ACHN); above 10 µM with NCI-H23 (lung) (setting [2]); above 10 µM in the series with PC-3 (prostate) (Homo sapiens); above 10 µM in the series with NUGC-3 (stomach) (setting [3]); above 10 µM in the series on MDA-MB-231 (breast) (setting [4]); above 10 µM in the series with HCT-15 (colon) (Homo sapiens, HCT-15, 48 hours).

For `CC(=O)c1cccc2nc3c(C(=O)O)ccc([C@H](C)c4cccc5nc6c(C(=O)O)cccc6nc45)c3nc12` [Compound 3, (R)-6-acetyl-4-(1-(6-carboxyphenazin-1-yl)ethyl)phenazine-1-carboxylic acid], the IC50 in series [1] (Mus musculus) was found to be 34.7 µM. Further, the GI50 with ACHN (kidney) (Homo sapiens, ACHN) is above 10 µM; in the series on NCI-H23 (lung) (setting [2]) it was above 10 µM; with PC-3 (prostate) (Homo sapiens) it was above 10 µM; in the series with NUGC-3 (stomach) (setting [3]), above 10 µM; in the series with MDA-MB-231 (breast) (setting [4]), above 10 µM; with HCT-15 (colon) (Homo sapiens, HCT-15, 48 hours), above 10 µM.

As to `C[C@@H](c1cc(C(=O)O)c2nc3cccc([C@@H](C)O)c3nc2c1)c1cccc2nc3c(C(=O)O)cccc3nc12` [Compound 4, 3-((S)-1-(6-carboxyphenazin-1-yl)ethyl)-6-((R)-1-hydroxyethyl)phenazine-1-carboxylic acid], in series [1] (Mus musculus), the IC50 turned out to be 126 µM. The GI50 in the series on ACHN (kidney) (Homo sapiens, ACHN) was above 10 µM; in the series with NCI-H23 (lung) (setting [2]), above 10 µM; in the series with PC-3 (prostate) (Homo sapiens), above 10 µM; with NUGC-3 (stomach) (setting [3]), above 10 µM; with MDA-MB-231 (breast) (setting [4]) it was above 10 µM; in the series with HCT-15 (colon) (Homo sapiens, HCT-15, 48 hours), above 10 µM.

For `C[C@H](c1cc([C@@H](C)O)c2nc3cccc(C(=O)O)c3nc2c1)c1cccc2nc3c(C(=O)O)cccc3nc12` [Compound 5, 8-((R)-1-(6-carboxyphenazin-1-yl)ethyl)-6-((R)-1-hydroxyethyl)phenazine-1-carboxylic acid], the IC50 in series [1] (Mus musculus) came to 27.4 µM. Further, the GI50 is above 10 µM in the series on ACHN (kidney) (Homo sapiens, ACHN); above 10 µM with NCI-H23 (lung) (setting [2]); above 10 µM in the series on PC-3 (prostate) (Homo sapiens); above 10 µM in the series with NUGC-3 (stomach) (setting [3]); above 10 µM in the series with MDA-MB-231 (breast) (setting [4]); above 10 µM in the series on HCT-15 (colon) (Homo sapiens, HCT-15, 48 hours).

Consider `C[C@@H](O)c1cccc2nc3c(C(=O)O[C@H](C)c4cccc5nc6c(C(=O)O)cccc6nc45)cccc3nc12` [Compound 6, 6-((R)-1-((6-((R)-1-hydroxyethyl)phenazine-1-carbonyl)oxy)ethyl)phenazine-1-carboxylic acid], for which the IC50 in series [1] (Mus musculus) turned out to be 0.3 µM. Moreover, the “cytotoxicity in cell viability test” value in the series on BV-2 microglia is on record as “strong cytotoxicity up to a concentration of 1 μM”. Moreover, the concentration for 50% growth inhibition (GI50) with ACHN (kidney) (Homo sapiens, ACHN) is 0.0135 µM; with NCI-H23 (lung) (setting [2]) it was 0.0096 µM; in the series on PC-3 (prostate) (Homo sapiens), 0.0096 µM; in the series with NUGC-3 (stomach) (setting [3]) it was 0.0077 µM; in the series with NUGC-3 (stomach) (Homo sapiens, NUGC-3, read-out: GI50 value, gastric cancer cells NUGC-3) it was 0.0077 µM; in the series with MDA-MB-231 (breast) (setting [4]) it was 0.0096 µM. Besides, it took 0.0096 µM to inhibit growth with HCT-15 (colon) (Homo sapiens, HCT-15, 48 hours) by half (GI50). The “cytotoxicity stronger than Adriamycin, NUGC-3” value in the series on NUGC-3 (stomach) (ratio of GI50 versus Adriamycin) came to 19 times.

For `CC(=O)c1cccc2nc3c(C(=O)O[C@H](C)c4cccc5nc6c(C(=O)O)cccc6nc45)cccc3nc12` [Compound 7, (R)-6-(1-((6-acetylphenazine-1-carbonyl)oxy)ethyl)phenazine-1-carboxylic acid], the GI50 is 0.0717 µM in the series with ACHN (kidney) (Homo sapiens, ACHN); 0.0426 µM with NCI-H23 (lung) (setting [2]); 0.0465 µM in the series on PC-3 (prostate) (Homo sapiens); 0.0349 µM with NUGC-3 (stomach) (setting [3]); 0.0523 µM with MDA-MB-231 (breast) (setting [4]); 0.0601 µM in the series with HCT-15 (colon) (Homo sapiens, HCT-15, 48 hours).

With `C[C@@H](O)c1cccc2nc3c(C(=O)O)cccc3nc12` [Compound 8, (R)-Saphenic acid], the IC50 in series [1] was 16.3 µM. The GI50 is above 10 µM with ACHN (kidney); above 10 µM with NCI-H23 (lung) (48 hours); above 10 µM in the series on PC-3 (prostate); above 10 µM with NUGC-3 (stomach) (read-out: GI50, NUGC-3); above 10 µM in the series with MDA-MB-231 (breast) (48 hours); above 10 µM with HCT-15 (colon) (48 hours).

Turning to `C[C@@H](OC(=O)c1ccccc1N)c1cccc2nc3c(C(=O)O)cccc3nc12` [Compound 9], in series [1], the IC50 worked out at 23.5 µM. For the same molecule, the GI50 with ACHN (kidney) was above 10 µM; with NCI-H23 (lung) (48 hours), above 10 µM; in the series on PC-3 (prostate), above 10 µM; in the series on NUGC-3 (stomach) (read-out: GI50, NUGC-3), above 10 µM; with MDA-MB-231 (breast) (48 hours), above 10 µM; in the series with HCT-15 (colon) (48 hours), above 10 µM.

In general, GI50 refers to the concentration giving 50% growth inhibition.
